Article PMC8355704, “Designing Modular Cell-free Systems for Tunable Biotransformation of L-phenylalanine to Aromatic Compounds” (Frontiers in Bioengineering and Biotechnology, 2021)

Tests used:
Type in all cases: biochemical
[1] = target: T1, phenylalanine ammonia lyase 2 (PAL2) (Arabidopsis thaliana, UniProt P45724); experiment: GC-MS detection of product cinnamic acid in cell-free expression mixture; conditions: unpurified E. coli CFPS lysate; control without plasmid
T1 construct: codon-optimised gene in pET28a (NdeI/SalI), made by E. coli cell-free protein synthesis, not purified
T1 sequence (P45724 whole entry): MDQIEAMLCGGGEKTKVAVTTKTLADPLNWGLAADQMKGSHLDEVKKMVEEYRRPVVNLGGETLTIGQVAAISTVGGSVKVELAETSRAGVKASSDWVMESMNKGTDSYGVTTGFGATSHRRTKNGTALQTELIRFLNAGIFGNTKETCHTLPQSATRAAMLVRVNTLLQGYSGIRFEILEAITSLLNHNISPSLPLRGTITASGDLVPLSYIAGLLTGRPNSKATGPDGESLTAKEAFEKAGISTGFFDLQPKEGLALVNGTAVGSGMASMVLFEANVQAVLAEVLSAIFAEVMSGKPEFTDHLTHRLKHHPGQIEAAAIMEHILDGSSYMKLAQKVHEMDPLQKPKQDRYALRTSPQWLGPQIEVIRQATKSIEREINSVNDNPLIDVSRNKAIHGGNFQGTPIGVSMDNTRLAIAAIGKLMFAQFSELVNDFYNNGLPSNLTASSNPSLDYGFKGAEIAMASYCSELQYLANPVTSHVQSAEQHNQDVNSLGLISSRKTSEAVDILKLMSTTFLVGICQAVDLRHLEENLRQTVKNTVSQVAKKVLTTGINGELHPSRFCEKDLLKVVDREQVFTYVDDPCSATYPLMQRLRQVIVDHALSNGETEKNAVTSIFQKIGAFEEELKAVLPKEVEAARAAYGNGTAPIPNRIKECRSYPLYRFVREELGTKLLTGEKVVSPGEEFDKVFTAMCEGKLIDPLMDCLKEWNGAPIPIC

[2] = target: T2, phenylacrylic acid decarboxylase (PAD, containing two enzymes Fdc1 and Pad1) (Aspergillus niger, UniProt A2QHE5); experiment: GC-MS detection of product styrene in cell-free expression mixture; conditions: unpurified E. coli CFPS lysate; control without plasmid; Fdc1 coexpressed with Pad1
T2 construct: codon-optimised Fdc1 and Pad1 genes in pET28a, coexpressed by E. coli cell-free protein synthesis, not purified; with Flavin prenyltransferase PAD1, mitochondrial

[3] = target: T3, styrene monooxygenase (SMO, consisting of two subunit enzymes StyA and StyB) (Pseudomonas sp., UniProt O50214); experiment: GC-MS detection of product styrene oxide in cell-free expression mixture; conditions: unpurified E. coli CFPS lysate; control without plasmid; StyA coexpressed with StyB; NADH from lysate
T3 construct: pET28a-StyA and pET28a-StyB coexpressed by E. coli cell-free protein synthesis, two separate chains, not purified; with Styrene monooxygenase StyB (NADH-flavin oxidoreductase component)
T3 sequence (O50214 1-415): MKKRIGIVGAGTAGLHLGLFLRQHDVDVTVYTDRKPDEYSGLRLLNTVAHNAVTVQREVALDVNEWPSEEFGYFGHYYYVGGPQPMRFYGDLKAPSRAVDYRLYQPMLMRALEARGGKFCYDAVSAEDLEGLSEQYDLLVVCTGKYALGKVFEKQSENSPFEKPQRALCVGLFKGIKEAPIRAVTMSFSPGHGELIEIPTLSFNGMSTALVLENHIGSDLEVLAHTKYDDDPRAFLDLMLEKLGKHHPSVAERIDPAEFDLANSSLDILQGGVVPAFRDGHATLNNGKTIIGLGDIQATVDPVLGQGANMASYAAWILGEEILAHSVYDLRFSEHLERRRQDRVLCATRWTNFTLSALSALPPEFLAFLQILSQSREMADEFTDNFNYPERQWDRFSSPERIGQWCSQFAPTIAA

[4] = target: T4, styrene oxide isomerase (StyC, SOI) (Pseudomonas sp. VLB120, UniProt O50216); experiment: GC-MS detection of product phenylacetaldehyde in cell-free expression mixture; conditions: unpurified E. coli CFPS lysate; control without plasmid
T4 construct: gene stdC; codon-optimised gene in pET28a, made by E. coli cell-free protein synthesis, not purified; membrane protein
T4 sequence (O50216 1-169): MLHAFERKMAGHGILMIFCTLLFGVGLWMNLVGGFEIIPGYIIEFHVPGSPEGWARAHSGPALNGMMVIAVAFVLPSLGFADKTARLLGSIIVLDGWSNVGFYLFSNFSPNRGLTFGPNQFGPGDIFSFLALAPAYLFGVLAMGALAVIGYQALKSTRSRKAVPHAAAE

N[C@@H](Cc1ccccc1)C(=O)O [compound 1, L-phenylalanine]
GC-MS detection of product cinnamic acid in cell-free expression mixture [1]: each target compound was detected by GC-MS

O=C(O)/C=C/c1ccccc1 [compound 2, cinnamic acid]
GC-MS detection of product styrene in cell-free expression mixture [2]: the conversion of cinnamic acid to styrene requires two enzymes Fdc1 and Pad1

C=Cc1ccccc1 [compound 3, styrene]
GC-MS detection of product styrene oxide in cell-free expression mixture [3]: two subunit enzymes StyA and StyB to oxidize styrene to styrene oxide

c1ccc(C2CO2)cc1 (stereo not shown) [compound 4, styrene oxide]
GC-MS detection of product phenylacetaldehyde in cell-free expression mixture [4]: all cell-free expressed enzymes were active to convert their substrates to the corresponding products
